The values below come from patent publication US20110053900A1, “PROGESTERONE ANTAGONISTS SUCH AS CDB-4124 IN THE TREATMENT OF BREAST CANCER” (Repros Therapeutics inc, priority 2008, published 2011).

One data set addresses T1, glucocorticoid receptor (Homo sapiens, UniProt P04150).
T1 sequence (P04150 1-777): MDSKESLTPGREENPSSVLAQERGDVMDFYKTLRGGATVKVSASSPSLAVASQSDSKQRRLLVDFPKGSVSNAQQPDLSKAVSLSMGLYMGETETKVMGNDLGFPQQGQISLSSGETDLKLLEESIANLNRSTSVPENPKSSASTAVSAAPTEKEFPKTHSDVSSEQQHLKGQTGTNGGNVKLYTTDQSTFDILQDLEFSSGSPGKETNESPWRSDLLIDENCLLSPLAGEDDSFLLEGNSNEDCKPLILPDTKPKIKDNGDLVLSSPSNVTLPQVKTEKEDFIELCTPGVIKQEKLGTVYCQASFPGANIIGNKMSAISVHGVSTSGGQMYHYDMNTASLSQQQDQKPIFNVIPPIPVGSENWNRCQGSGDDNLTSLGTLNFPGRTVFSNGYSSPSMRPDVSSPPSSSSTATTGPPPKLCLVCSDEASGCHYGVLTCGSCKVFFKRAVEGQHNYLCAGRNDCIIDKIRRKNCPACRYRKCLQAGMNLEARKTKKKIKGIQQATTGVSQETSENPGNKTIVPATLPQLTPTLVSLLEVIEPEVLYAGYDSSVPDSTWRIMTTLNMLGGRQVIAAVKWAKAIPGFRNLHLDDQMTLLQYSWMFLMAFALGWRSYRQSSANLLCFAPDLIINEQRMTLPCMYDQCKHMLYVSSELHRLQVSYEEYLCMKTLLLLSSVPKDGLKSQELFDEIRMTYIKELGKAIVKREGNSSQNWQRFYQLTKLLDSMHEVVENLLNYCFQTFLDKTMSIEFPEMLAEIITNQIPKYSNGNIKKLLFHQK
Conditions: compared with parent CDB-4124; cited from earlier work.

For data set [1], the system named is rabbit progesterone receptor (rbPR) and glucocorticoid receptor (rbGR). Briefly: Receptor-binding assays, ratio of relative binding affinities rbPR/rbGR. The settings on record: RBA = EC50 of standard/EC50 of test compound x 100. How it is done:
(§1) Certain antiprogestins were tested in receptor-binding assays for their ability to bind rabbit progesterone receptor (rbPR) and glucocorticoid receptor (rbGR). Briefly, cytosol containing PR or GR were prepared in TEGMD buffer (10 mM Tris, pH 7.2, 1.5 mM EDTA, 0.2 mM sodium molybdate, 10% glycerol, 1 mM DTT) from uterus or thymus, respectively, of estradiol-primed immature rabbits. For PR binding, the cytosol was incubated with 6 nM 1,2-[^3H]progesterone (50.0 Ci/mmole) and competitors were added at concentrations from 2 to 100 nM. For binding to GR, the cytosol was incubated with 6 nM 6,7-[^3H]-dexamethasone (40 Ci/mmol) and test compounds were added at concentrations from 20 to 100 nM. After overnight incubation at 4° C., bound and unbound [^3H] steroids were separated by addition of dextran-coated charcoal and centrifugation at 2100×g for 15 min at 4
C. Supernatants containing the [3H]-steroid receptor complexes were decanted into vials containing 4 ml Optifluor (Packard Instrument Co.), vortexed, equilibrated in a liquid scintillation counter for 30 minutes and then counted for 2 minutes. The ECso (Effective Concentration) for each standard curve and each of the compound curves was determined by entering the counting data into a four parameter sigmoidal computer program (RiaSmart® Immunoassay Data Reduction Program, Packard Instrument Co., Meriden, Conn.). Relative binding affinity (RBA) for each compound was calculated using the following equation: EC50 of standard/EC50 of test compound×100. The standards for the PR and GR assays were unlabeled progesterone and dexamethasone, respectively. The results of these experiments are summarized in Table 1, as a ratio of the relative binding affinities of each compound for the rbPR and rbGR receptors (rbPR/rbGR).

For data set [2], the target named is T2, glucocorticoid receptor (rbGR) (Oryctolagus cuniculus, UniProt P59667).
T2 construct: cytosol containing PR or GR were prepared in TEGMD buffer; from tissue; host or cells: thymus of estradiol-primed immature rabbits (cytosol)
T2 sequence (P59667 1-772): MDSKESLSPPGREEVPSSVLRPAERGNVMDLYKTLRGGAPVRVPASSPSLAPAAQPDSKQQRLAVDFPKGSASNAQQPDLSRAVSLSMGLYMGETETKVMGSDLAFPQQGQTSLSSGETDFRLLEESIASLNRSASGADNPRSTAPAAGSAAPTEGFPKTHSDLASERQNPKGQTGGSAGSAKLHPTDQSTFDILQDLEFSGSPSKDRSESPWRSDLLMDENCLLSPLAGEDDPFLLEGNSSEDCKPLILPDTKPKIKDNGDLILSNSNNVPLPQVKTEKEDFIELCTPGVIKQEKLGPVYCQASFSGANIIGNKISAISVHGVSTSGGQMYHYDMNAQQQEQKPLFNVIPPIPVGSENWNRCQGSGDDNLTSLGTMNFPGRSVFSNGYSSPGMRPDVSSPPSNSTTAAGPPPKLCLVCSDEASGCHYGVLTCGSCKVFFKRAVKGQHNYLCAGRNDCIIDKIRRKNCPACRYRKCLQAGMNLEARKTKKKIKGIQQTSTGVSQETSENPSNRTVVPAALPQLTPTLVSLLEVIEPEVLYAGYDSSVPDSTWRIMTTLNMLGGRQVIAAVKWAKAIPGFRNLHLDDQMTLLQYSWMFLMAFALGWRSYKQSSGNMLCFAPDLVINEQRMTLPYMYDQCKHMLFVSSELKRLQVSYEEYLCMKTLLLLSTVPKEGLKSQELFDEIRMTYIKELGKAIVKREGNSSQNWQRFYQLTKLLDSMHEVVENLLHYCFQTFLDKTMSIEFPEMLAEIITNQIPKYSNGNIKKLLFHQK
Kind of data set: Glucocorticoid receptor binding. The arrangement: species or system rabbit. The protocol:
as §1, with “Briefly, cytosol containing PR or GR were prepared in TEGMD buffer (10 mM Tris, pH 7.2, 1.5 mM EDTA, 0.2 mM sodium molybdate, 10% glycerol, 1 mM DTT) from uterus or thymus, respectively, of estradiol-primed immature rabbits.” left out
C. Supernatants containing the [3H]-steroid receptor complexes were decanted into vials containing 4 ml Optifluor (Packard Instrument Co.), vortexed, equilibrated in a liquid scintillation counter for 30 minutes and then counted for 2 minutes. […] The standards for the PR and GR assays were unlabeled progesterone and dexamethasone, respectively.

For the next data set, the system named is rabbit uterus. Kind of data set: Anti-McGinty and anti-Clauberg assays. The format is in vivo. Conditions: in comparison to RU 486 and CDB-2914. The text has this: Also given in the Table are the relative biological activities of the same compounds in the rabbit uterus by the anti-McGinty and anti-Clauberg assays. Compound CDB-2914 (listed at the end of the Table) was used as the control or reference compound (rabbit Biological Activity=1.00) for these experiments because results of experiments using CDB-2914 have been published before (Hild-Petito et al., 1996; Passaro et al., 1997; Reel et al., 1998; Lamer et al., 2000). For the anti-McGinty test, immature female rabbits received a subcutaneous injection of 5 μg estradiol in 10% ethanol/sesame oil daily for 6 consecutive days. On day 7, animals underwent sterile abdominal surgery to ligate a 3-4 cm segment of both uterine horns. The test compound in appropriate solvent was injected intraluminally into the ligated segment of one uterine horn and vehicle alone into the other. A stimulating dose of progesterone (267 μg/day) was administered subcutaneously to each rabbit daily for the next three days to induce endometrial proliferation. All animals were sacrificed at day 10 for removal of the uterus where a segment central to the ligatures was removed and fixed in 10% neutral buffered formalin and submitted for histological processing. Five micron sections stained with hematoxylin and cosin were evaluated microscopically for the degree of endometrial glandular proliferation. The percent inhibition of endometrial proliferation for each rabbit was calculated and the mean of the group of five animals recorded. For the Anti-Clauberg test, immature female rabbits received a subcutaneous injection of 5 μg estradiol in 10% ethanol/sesame oil daily for 6 consecutive days. On day 7, animals received progesterone by subcutaneous injection (160 μg/day) and the experimental compound in appropriate vehicle orally or subcutaneously for five consecutive days. One group of rabbits received progesterone only. Twenty-four hours after the last dose, all animals were sacrificed for removal of the uterus which was cleaned of all fat and connective tissue, weighed to the nearest 0.2 mg and placed in 10% neutral buffered formalin for subsequent histological processing. Five micron sections stained with hematoxylin and eosin were evaluated microscopically for the degree of endometrial glandular proliferation. The percent inhibition of endometrial proliferation at each dose level of the test compound was derived by comparison with progesterone-stimulated animals alone. The data presented in Table 1 (rabbit Biol. Act.) reflects the average of the results obtained for each compound by the anti-McGinty and anti-Clauberg assays relative to CDB-2914.

Data set [3] in a line: Estrogenic, androgenic, anti-estrogenic and anti-androgenic activities.
The nature of data set [4]: Estrogen levels in human females during administration. The format is in vivo. Conditions: administration periods of at least six months.
A short description of data set [5]: Serum progesterone by ELISA. The class given is in vivo, rat. How it is done:
(§2) The animals were assessed three times for their levels of progesterone: initially, when they were about to go on treatment; a second time after 21 days of treatment; and finally after treatment at sacrifice which was 2-4 days after the last s.c. injection. All blood samples were taken by heart puncture; serum was prepared and held frozen at −40° C. The levels of the steroid hormones progesterone, cortisol, and corticosterone were determined by ELISA.
(§3) The concentrations of steroid hormones were determined three times during the study: before the beginning of treatments, after 21 days of treatment and finally after treatment at sacrifice which was 2-4 days after the last s.c. injection. All samples were taken by heart puncture. Serum was obtained and held frozen at −40° C. The levels of steroid hormones were determined by ELISA.

A short description of a further data set: Serum cortisol by ELISA. The settings on record: 10 mg/kg, 21 days of dosing. The format is in vivo, rat. How it is done:
as §2, §3
(ELISA stands for enzyme-linked immunosorbent assay.)

As to `CNc1ccc([C@H]2C[C@@]3(C)[C@@H](CC[C@]3(OC(C)=O)C(=O)COC)[C@@H]3CCC4=CC(=O)CCC4=C32)cc1` [CDB-4453, 21-methoxy-17α-acetoxy-11β-(4-N-methylaminophenyl)-19-norpregna-4,9-diene-3,20-dione], the “anti-glucocorticoid activity (in words)” value on glucocorticoid receptor is reported as “even lower anti-glucocorticoid activity than its parent”.
Take `CC(=O)OCC(=O)[C@@]1(OC(C)=O)CCC2C3CCC4=CC(=O)CCC4=C3C(c3ccc(N(C)C)cc3)C[C@@]21C` (stereo partly drawn) [CDB-4059, 21-acetoxy-17α-acetoxy-11β-(4 N,N-dimethylaminophenyl)-19-norpregna-4,9-diene-3,20-dione]: the “rbPR/rbGR (ratio of the relative binding affinities for rbPR and rbGR)” value in data set [1] is given as 1.89. Moreover, in data set [2], the “anti-glucocorticoid receptor activity / glucocorticoid receptor binding (in words)” value is “minimal anti-glucocorticoid receptor activity”. Moreover, in the data set on rabbit uterus, the “antiprogestin activity in the rabbit uterus (in words)” value is “strong antiprogestin activity”. For the same compound, the “estrogenic, androgenic, anti-estrogenic, and anti-androgenic activities (in words)” value in data set [3] is “lack estrogenic, androgenic, anti-estrogenic, and anti-androgenic activities”. For the same compound, the “estrogen levels in human females (in words)” value in data set [4] is on record as “maintain estrogen levels in the normal range”. Further, in data set [5] (10 mg/kg), the “serum progesterone versus before treatment (in words)” value is “did not raise serum progesterone levels”. In data set [5] (10 mg/kg group, before treatment), the “Serum Progesterone, Before TX (mean)” value was found to be 57 ng/mL. Moreover, the “Serum Progesterone, During TX (mean)” value in data set [5] (10 mg/kg, after 21 days of treatment) was found to be 58 ng/mL. The “Serum Progesterone, After TX (mean)” value in data set [5] (10 mg/kg, at sacrifice 2-4 days after the last s.c. injection) was 47 ng/mL. The “serum cortisol versus control group (in words)” value in the data set “Serum cortisol by ELISA” is given as “significantly higher levels of serum cortisol”.
